The assay has as its target T1, Human MGAT-2 (Homo sapiens, UniProt Q3SYC2).
T1 construct: made in house; host or cells: Sf9 cells (membrane preparation)
Put plainly: MGAT LCMS Assay. The format is biochemical. Particulars: human MGAT2 membranes expressed in Sf9 cells; 100 μM 2-oleoylglycerol, 15 μM oleoyl-coenzyme A; read-out: h-MGAT LCMS IC50. The protocol: Assay plates were run through a fully automated robotics system and shaken for 5 seconds every minute for a total 10 minutes. The reactions were then quenched with 120 μL of ice cold methanol containing 1 μg/mL 1,2-distearoyl-rac-glycerol as the internal standard. Plates were shaken for 2 minutes and spun down to remove protein precipitation. After the spin, samples were transferred to LC/MS compatible PCR plates. For LC/MS analysis, a ThermoFisher Surveyor pump, utilizing a Waters […]® C8, 50×2.1 mm column, was used for the chromatography of enzyme products. The buffer system consists of 0.1% formic acid in water with a mobile phase consisting 0.1% formic acid in methanol. […] The first 0.5 minutes of each injection was diverted to waste to eliminate the presence of Phosphate buffer in the enzymatic reaction. The column was run at 0.6 mL/min and a temperature of 65° C. Mass spectrometry analysis of the samples was performed on a ThermoFisher Quantum Triple quad utilizing APCI (+) as the mode of ionization. […] The ratio of Diolein to internal standard (Peak Area Ratio) is utilized to calculate IC50 values.

Molecules are shown by their SMILES.

T1 sequence (Q3SYC2 whole entry): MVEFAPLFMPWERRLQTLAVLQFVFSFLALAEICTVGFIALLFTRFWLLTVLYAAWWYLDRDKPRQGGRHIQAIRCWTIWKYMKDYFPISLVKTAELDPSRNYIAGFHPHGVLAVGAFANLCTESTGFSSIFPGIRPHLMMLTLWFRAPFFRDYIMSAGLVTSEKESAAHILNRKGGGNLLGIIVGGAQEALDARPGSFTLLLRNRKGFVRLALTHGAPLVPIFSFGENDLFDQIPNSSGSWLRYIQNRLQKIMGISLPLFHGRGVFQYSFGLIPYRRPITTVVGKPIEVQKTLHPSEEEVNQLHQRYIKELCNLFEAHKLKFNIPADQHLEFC

As to `CC(C)n1ccc(-c2cc(-c3ccc(OCCCCCC(F)(F)F)cc3)[nH]c(=O)c2-c2nn[nH]n2)n1` [Example 66], the IC50 (commonly the concentration that gives 50% inhibition) turned out to be 61 nM.
Take `CCOc1ccc(NC(=O)c2c(-c3cnc(N(C)C)s3)cc(-c3ccc(OCCCC(F)(F)F)cc3)[nH]c2=O)cc1` [Example 67]: the IC50 was 2 nM.
Take `CN(C)c1ncc(-c2cc(-c3ccc(OCCCC(F)(F)F)cc3)[nH]c(=O)c2-c2nnn[nH]2)s1` [Example 68, 4-(2-(Dimethylamino)thiazol-5-yl)-3-(1H-tetrazol-5-yl)-6-(4-(4,4,4-trifluorobutoxy)phenyl)pyridin-2(1H)-one]: the IC50 turned out to be 673 nM.
The figure for `Cc1ccc(-c2cc(-c3ccc(C4=CCCCCC4)cc3)[nH]c(=O)c2-c2nnn[nH]2)cc1` [Example 69, 6-(4-(Cyclohept-1-en-1-yl)phenyl)-3-(1H-tetrazol-5-yl)-4-(p-tolyl)pyridin-2(1H)-one] is 220 nM.
Regarding `Cc1ccc(-c2cc(-c3ccc(OCCCCCC(F)(F)F)c(C)c3)[nH]c(=O)c2-c2nnn[nH]2)cc1` [Example 70, 6-(3-Methyl-4-((6,6,6-trifluorohexyl)oxy)phenyl)-3-(1H-tetrazol-5-yl)-4-(p-tolyl)pyridin-2(1H)-one], the IC50 came to 97 nM.
`CS(=O)(=O)NC(=O)c1c(-c2ccc(OC(F)F)cc2)cc(-c2ccc(OCCCCCC(F)(F)F)cc2)[nH]c1=O` [Example 71]: the IC50 worked out at 15 nM.
As for `CC(C)n1ccc(-c2cc(-c3ccc(CCCCC(F)(F)F)cc3)[nH]c(=O)c2-c2nn[nH]n2)n1` [Example 74, 4-(1-Isopropyl-1H-pyrazol-3-yl)-3-(2H-tetrazol-5-yl)-6-(4-(5.5,5-trifluoropentyl)phenyl)pyridin-2(1H)-one], the half-maximal inhibitory concentration (IC50) was found to be 255 nM.
The figure for `O=c1[nH]c(-c2ccc(OCCCC(F)(F)F)cc2)cc(-c2ccn(C3CC3)n2)c1-c1nn[nH]n1` [Example 76, 4-(1-Cyclopropyl-1H-pyrazol-3-yl)-3-(2H-tetrazol-5-yl)-6-(4-(4,4,4-trifluorobutoxy)phenyl)pyridin-2(1H)-one] is 87 nM.
On to `O=C(NS(=O)(=O)C1CC1)c1c(-c2ccn(C3CCC3)n2)cc(-c2ccc(OCCCC(F)(F)F)cc2F)[nH]c1=O` [Example 77, 4-(1-Cyclobutyl-1H-pyrazol-3-yl)-N-(cyclopropylsulfonyl)-6-(2-fluoro-4-(4,4,4-trifluorobutoxy)phenyl)-2-oxo-1,2-dihydropyridine-3-carboxamide], for which the IC50 amounted to 143 nM.
`Cc1ccc(-c2cc(-c3ccc(OCCCC(F)(F)F)cc3)[nH]c(=O)c2C(=O)NC2CCC2)cc1` [Example 79, N-Cyclobutyl-2-oxo-4-(p-tolyl)-6-(4-(4,4,4-trifluorobutoxy)phenyl)-1,2-dihydropyridine-3-carboxamide]: the IC50 is 198 nM.
`CCC/C=C/c1ccc(-c2cc(-c3ccc(N(C)C)cc3)c(-c3nn[nH]n3)c(=O)[nH]2)cc1` [Example 80, (E)-4-(4-(Dimethylamino)phenyl)-6-(4-(pent-1-en-1-yl)phenyl)-3-(2H-tetrazol-5-yl)pyridin-2(1H)-one]: the IC50 came out at 168 nM.
For the compound `Cc1ccc(-c2cc(-c3ccc(Cc4ccccc4)cc3)[nH]c(=O)c2-c2nn[nH]n2)cc1` [Example 81, 6-(4-Benzylphenyl)-3-(2H-tetrazol-5-yl)-4-(p-tolyl)pyridin-2(1H)-one], the IC50 worked out at 256 nM.
As for `CN(C)c1ncc(-c2cc(C3CCCCC3)[nH]c(=O)c2C(=O)Nc2ccc(OC(F)(F)F)cc2)s1` [Example 82, 6-Cyclohexyl-4-(2-(dimethylamino)thiazol-5-yl)-2-oxo-N-(4-(trifluoromethoxy)phenyl)-1,2-dihydropyridinc-3-carboxamide], the IC50 came out at 1 nM.
As to `CCc1ccc(-c2cc(-c3ccc(OCCCCCC(F)(F)F)cc3)[nH]c(=O)c2C(=O)NS(=O)(=O)C2CC2)s1` [Example 84, N-(Cyclopropylsulfonyl)-4-(5-ethylthiophen-2-yl)-2-oxo-6-(4-((6,6,6-trifluorohexyl)oxy)phenyl)-1,2-dihydropyridine-3-carboxamide], the IC50 was found to be 1 nM.
As for `O=C(Nc1ccc(OC(F)(F)F)cc1)c1c(-c2ccc(Cl)s2)cc(C2CCCCC2)[nH]c1=O` [Example 85, 4-(5-Chlorothiophen-2-yl)-6-cyclohexyl-2-oxo-N-(4-(trifluoromethoxy)phenyl)-1,2-dihydropyridine-3-carboxamide], the IC50 came to 7 nM.
Consider `O=c1[nH]c(-c2ccc(OCCCC(F)(F)F)cc2F)cc(-c2ccc3c(c2)CCCC3)c1-c1nn[nH]n1` [Example 89, 6-(2-Fluoro-4-(4,4,4-trifluorobutoxy)phenyl)-4-(5,6,7,8-tetrahydronaphthalen-2-yl)-3-(2H-tetrazol-5-yl)pyridin-2(1H)-one], for which the IC50 amounted to 24 nM.
The figure for `O=C(Nc1ccc(OC(F)(F)F)cc1)c1c(-c2cnn(C3CC3)c2)cc(C2CCCCC2)[nH]c1=O` [Example 94] is 355 nM; for `O=C(Nc1ccc(OC(F)(F)F)cc1)c1c(-c2cnn(C3CC3)c2)cc(-c2ccc(OCCCC(F)(F)F)cc2)[nH]c1=O` [Example 95, 4-(1-Cyclopropyl-1H-pyrazol-4-yl)-2-oxo-6-(4-(4,4,4-trifluorobutoxy)phenyl)-N-(4-(trifluoromethoxy)phenyl)-1,2-dihydropyridine-3-carboxamide] it is 17 nM; for `O=c1[nH]c(-c2ccc(OCCCCCC(F)(F)F)cc2F)cc(-c2ccc(C3CC3)s2)c1-c1nn[nH]n1` [Example 96, 4-(5-Cyclopropylthiophen-2-yl)-6-(2-fluoro-4-((6,6,6-trifluorohexyl)oxy)phenyl)-3-(2H-tetrazol-5-yl)pyridin-2(1H)-one] it is 1 nM.
In the case of `O=c1[nH]c(-c2ccc(OCCCC(F)(F)F)cc2)cc(-c2ccn(CC3CC3)n2)c1-c1nnn[nH]1` [Example 97], the IC50 was determined as 153 nM.
`CS(=O)(=O)NC(=O)c1c(-c2ccn(CC3CC3)n2)cc(-c2ccc(OCCCC(F)(F)F)cc2)[nH]c1=O` [Example 98, 4-(1-(Cyclopropylmethyl)-1H-pyrazol-3-yl)-N-(methylsulfonyl)-2-oxo-6-(4-(4,4,4-trifluorobutoxy)phenyl)-1,2-dihydropyridine-3-carboxamide]: the IC50 came to 332 nM.
In the case of `CCc1ccc(-c2cc(-c3ccc(OCCCCCC(F)(F)F)cc3)[nH]c(=O)c2C(=O)NS(C)(=O)=O)s1` [Example 101, 4-(5-Ethylthiophen-2-yl)-N-(methylsulfonyl)-2-oxo-6-(4-((6,6,6-trifluorohexyl)oxy)phenyl)-1,2-dihydropyridine-3-carboxamide], the half-maximal inhibitory concentration (IC50) amounted to 7 nM.
Regarding `O=c1[nH]c(-c2ccc(CCCCC(F)(F)F)cc2F)cc(-c2ccn(C3CCC3)n2)c1-c1nnn[nH]1` [Example 103], the IC50 is 26 nM.
In the case of `O=c1[nH]c(-c2ccc(OCCCCCC(F)(F)F)cc2F)cc(-c2ccn(C3CC3)n2)c1-c1nn[nH]n1` [Example 104, 4-(1-Cyclopropyl-1H-pyrazol-3-yl)-6-(2-fluoro-4-((6,6,6-trifluorohexyl)oxy)phenyl)-3-(2H-tetrazol-5-yl)pyridin-2(1H)-one], the IC50 was found to be 84 nM.
As to `CS(=O)(=O)NC(=O)c1c(-c2ccn(CC3CC3)n2)cc(-c2ccc(OCCCCCC(F)(F)F)cc2)[nH]c1=O` [Example 105, 4-(1-(Cyclopropylmethyl)-1H-pyrazol-3-yl)-N-(methylsulfonyl)-2-oxo-6-(4-((6,6,6-trifluorohexyl)oxy)phenyl)-1,2-dihydropyridine-3-carboxamide], the concentration for half-maximal inhibition (IC50) was 23 nM.
For `O=c1[nH]c(-c2ccc(OCCCCCC(F)(F)F)cc2)cc(-c2ccn(C3CC3)n2)c1-c1nnn[nH]1` [Example 107], the IC50 was 99 nM.
Take `O=c1[nH]c(-c2ccc(OCCCCCC(F)(F)F)cc2)cc(-c2ccc(OC(F)F)cc2)c1-c1nnn[nH]1` [Example 108, 4-(4-(Difluoromethoxy)phenyl)-3-(1H-tetrazol-5-yl)-6-(4-((6,6-trifluorohexyl)oxy)phenyl)pyridin-2(1H)-one]: the IC50 was determined as 14 nM.
With `CS(=O)(=O)NC(=O)c1c(-c2ccn(CC3CC3)n2)c(F)c(-c2ccc(OCCCC(F)(F)F)cc2)[nH]c1=O` [Example 109, 4-(1-(Cyclopropylmethyl)-1H-pyrazol-3-yl)-5-fluoro-N-(methylsulfonyl)-2-oxo-6-(4-(4,4,4-trifluorobutoxy)phenyl)-1,2-dihydropyridine-3-carboxamide], the IC50 came to 130 nM.
The figure for `O=c1[nH]c(-c2ccc(OCCCCCC(F)(F)F)cc2)cc(-c2ccn(CC3CC3)n2)c1-c1nnn[nH]1` [Example 110, 4-(1-(Cyclopropylmethyl)-1H-pyrazol-3-yl)-3-(1H-tetrazol-5-yl)-6-(4-((6,6,6-trifluorohexyl)oxy)phenyl)pyridin-2(1H)-one] is 43 nM; for `Cc1ccc(-c2cc(-c3ccc(OCCCC(F)(F)F)cc3C(F)(F)F)[nH]c(=O)c2C(=O)Nc2ccc(OC(F)(F)F)cc2)cc1` [Example 111, 2-Oxo-4-(p-tolyl)-6-(4-(4,4,4-trifluorobutoxy)-2-(trifluoromethyl)phenyl)-N-(4-(trifluorormethoxy)phenyl)-1,2-dihydropyridine-3-carboxamide] it is 2 nM.
Next, `O=c1[nH]c(-c2ccc(OCCCC(F)(F)F)cc2F)cc(-c2ccc(OC(F)F)cc2)c1-c1nn[nH]n1` [Example 113, 4-(4-(Difluoromethoxy)phenyl)-6-(2-fluoro-4-(4,4,4-trifluorobutoxy)phenyl)-3-(2H-tetrazol-5-yl)pyridin-2(1H)-one]: 7 nM.

Source of the values: patent publication US9974778B2, “Substituted pyridinones as MGAT2 inhibitors” (BRISTOL-MYERS SQUIBB COMPANY, priority 2014, dated 2018).
